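Dose response: 5 concentrations. Exposure: 48 h. Format: 96-well plates. Endpoint: linear interpolation; highest concentration if not reached. TGI is the concentration that stops growth completely.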
Legend:
Assay in all cases: NCI anticancer screen, dose series, 48 h
SN12C renal = system: SN12C renal
HCC-2998 colon = system: HCC-2998 colon
MDA-N = system: MDA-N
M14 melanoma = system: M14 melanoma
SF-268 CNS = system: SF-268 CNS
UACC-62 melanoma = system: UACC-62 melanoma
OVCAR-8 ovarian = system: OVCAR-8 ovarian
HCT-15 colon = system: HCT-15 colon
TK-10 renal = system: TK-10 renal
NCI-H460 lung = system: NCI-H460 lung
T-47D breast = system: T-47D breast
UO-31 renal = system: UO-31 renal
786-0 renal = system: 786-0 renal
SF-295 CNS = system: SF-295 CNS
MDA-MB-435 = system: MDA-MB-435
ACHN renal = system: ACHN renal
SF-539 CNS = system: SF-539 CNS
CCRF-CEM leukemia = system: CCRF-CEM leukemia
MCF7 breast = system: MCF7 breast
HL-60(TB) leukemia = system: HL-60(TB) leukemia
SK-MEL-28 melanoma = system: SK-MEL-28 melanoma
EKVX NSCLC = system: EKVX NSCLC
U251 CNS = system: U251 CNS
NCI-H23 lung = system: NCI-H23 lung
MDA-MB-231 breast = system: MDA-MB-231 breast
COLO 205 colon = system: COLO 205 colon
A549 NSCLC = system: A549 NSCLC
SNB-75 CNS = system: SNB-75 CNS
HOP-62 NSCLC = system: HOP-62 NSCLC
MOLT-4 leukemia = system: MOLT-4 leukemia
NCI-H226 lung = system: NCI-H226 lung
RXF 393 renal = system: RXF 393 renal
CAKI-1 renal = system: CAKI-1 renal
SNB-19 CNS = system: SNB-19 CNS
HOP-92 NSCLC = system: HOP-92 NSCLC
SW-620 colon = system: SW-620 colon
HCT-116 colon = system: HCT-116 colon
DU-145 prostate = system: DU-145 prostate
OVCAR-3 ovarian = system: OVCAR-3 ovarian
OVCAR-4 ovarian = system: OVCAR-4 ovarian
PC-3 prostate = system: PC-3 prostate
SK-OV-3 ovarian = system: SK-OV-3 ovarian
UACC-257 melanoma = system: UACC-257 melanoma
K-562 leukemia = system: K-562 leukemia
BT-549 breast = system: BT-549 breast
KM12 colon = system: KM12 colon
IGROV1 ovarian = system: IGROV1 ovarian
NCI/ADR-RES ovarian = system: NCI/ADR-RES ovarian
HT29 colon = system: HT29 colon
SK-MEL-2 melanoma = system: SK-MEL-2 melanoma
HS 578T breast = system: HS 578T breast
MALME-3M melanoma = system: MALME-3M melanoma
SK-MEL-5 melanoma = system: SK-MEL-5 melanoma
OVCAR-5 ovarian = system: OVCAR-5 ovarian
LOX IMVI melanoma = system: LOX IMVI melanoma

For `O=C(NC(CO)CO)c1ccc2cc(C(=O)N3CC(CCl)c4ccc([N+](=O)[O-])cc43)[nH]c2c1` (stereo not given), the TGI (SN12C renal) was over 100 µM, the TGI (HCC-2998 colon) was over 100 µM and the TGI (MDA-N) was over 100 µM. It also gave a TGI (M14 melanoma) of over 100 µM, a TGI (SF-268 CNS) of over 100 µM and a TGI (UACC-62 melanoma) of over 100 µM. For the same compound, the TGI (OVCAR-8 ovarian) was over 100 µM, the TGI (HCT-15 colon) was over 100 µM and the TGI (TK-10 renal) was over 100 µM. The TGI (NCI-H460 lung) was over 100 µM, the TGI (T-47D breast) was 64.2 µM and the TGI (UO-31 renal) was over 100 µM. The TGI (786-0 renal) was over 100 µM, the TGI (SF-295 CNS) was over 100 µM and the TGI (MDA-MB-435) was over 100 µM. For the same compound, the TGI (ACHN renal) was over 100 µM, the TGI (SF-539 CNS) was over 100 µM and the TGI (CCRF-CEM leukemia) was over 100 µM. For the same compound, the TGI (MCF7 breast) was over 100 µM, the TGI (HL-60(TB) leukemia) was over 100 µM and the TGI (SK-MEL-28 melanoma) was over 100 µM. For the same compound, the TGI (EKVX NSCLC) was over 100 µM, the TGI (U251 CNS) was over 100 µM and the TGI (NCI-H23 lung) was over 100 µM. It also gave a TGI (MDA-MB-231 breast) of over 100 µM, a TGI (COLO 205 colon) of over 100 µM and a TGI (A549 NSCLC) of over 100 µM. It also gave a TGI (SNB-75 CNS) of over 100 µM, a TGI (HOP-62 NSCLC) of over 100 µM and a TGI (MOLT-4 leukemia) of over 100 µM. The TGI (NCI-H226 lung) was over 100 µM, the TGI (RXF 393 renal) was over 100 µM and the TGI (CAKI-1 renal) was over 100 µM. For the same compound, the TGI (SNB-19 CNS) was over 100 µM, the TGI (HOP-92 NSCLC) was over 100 µM and the TGI (SW-620 colon) was over 100 µM. The TGI (HCT-116 colon) was over 100 µM, the TGI (DU-145 prostate) was over 100 µM and the TGI (OVCAR-3 ovarian) was over 100 µM. The TGI (OVCAR-4 ovarian) was over 100 µM, the TGI (PC-3 prostate) was over 100 µM and the TGI (SK-OV-3 ovarian) was over 100 µM. For the same compound, the TGI (UACC-257 melanoma) was over 100 µM, the TGI (K-562 leukemia) was over 100 µM and the TGI (BT-549 breast) was over 100 µM. It also gave a TGI (KM12 colon) of over 100 µM, a TGI (IGROV1 ovarian) of over 100 µM and a TGI (NCI/ADR-RES ovarian) of over 100 µM. It also gave a TGI (HT29 colon) of over 100 µM, a TGI (SK-MEL-2 melanoma) of over 100 µM and a TGI (HS 578T breast) of over 100 µM. The TGI (MALME-3M melanoma) was over 100 µM, the TGI (SK-MEL-5 melanoma) was over 100 µM and the TGI (OVCAR-5 ovarian) was over 100 µM. The TGI (LOX IMVI melanoma) was over 100 µM.
